Like-named read-outs stand apart in the source and are kept apart here. Bridge positions count the residues as written; N and C are the ends. Square brackets hold non-standard residues; d marks the D form. Peptide text beside a SMILES is read from it. Cit = NC(=O)NCCC[C@H](N)C(=O)O
Legend:
LSD1 [1] = target: T1, LSD1 (Homo sapiens, UniProt O60341); experiment: HRP-coupled fluorescence LSD1 demethylation activity and inhibition assay, substrate H3_1-21 K4(Me); assay type: biochemical; conditions: for mode of inhibition / inhibition of LSD1 (in words): enzyme activity assay; for mode of inhibition: inhibition kinetics; for Km: Tris buffer pH 8.0
T1 construct: made in house; host or cells: Escherichia coli Rosetta 2 (pET15b)

LSD1 [2] = target: T1, LSD1; experiment: SPR biosensor interaction kinetic assay with immobilized LSD1 (15 °C, TBS-T with DTT); assay type: binding
[3] = 100 μM, supplement sheet SMILES and Activity, read-out: Inhibition at 100 μM (%)
[4] = read-out: % inhibition at 100 μM
[5] = supplement sheet SMILES and Activity, read-out: IC50

| Compound | inhibition at 100 µM (LSD1 [1]; [3]) [%] | inhibition at 100 µM (LSD1 [1]; [4]) [%] | IC50 (LSD1 [1]; [5]) [µM] | other results |
| --- | --- | --- | --- | --- |
| CSCC[C@@H]1NC(=O)[C@H](NC(=O)[C@H](CCCNC(=N)N)NC(=O)[C@H](C)N)CCC/C=C\CCC[C@@H](C(=O)N[C@@H](C)C(=O)N[C@@H](CCCNC(=N)N)C(=O)N[C@@H](CCCCN)C(=O)N[C@@H](CO)C(=O)N[C@H](C(N)=O)[C@@H](C)O)NC(=O)[C@H](CCC(N)=O)NC1=O (relative stereo) [Peptide 24, AR*G^penMQG^penARKST-NH2] | 95 | 95 | – | mode of inhibition (LSD1 [1]): competitive inhibitor |
| CSCC[C@@H]1NC(=O)[C@H](NC(=O)[C@H](CCCNC(=N)N)NC(=O)[C@H](C)N)CCC/C=C\CCC[C@H](C(=O)N[C@@H](C)C(=O)N[C@@H](CCCNC(=N)N)C(=O)N[C@@H](CCCCN)C(=O)N[C@@H](CO)C(=O)N[C@H](C(N)=O)[C@@H](C)O)NC(=O)[C@H](CCC(N)=O)NC1=O (relative stereo) [Peptide 26, AR*G^penMQ*G^penARKST-NH2] | 100 | 90 | – | – |
| CSCC[C@@H]1NC(=O)[C@H](NC(=O)[C@H](CCCNC(=N)N)NC(=O)[C@H](C)N)CCCCNC(=O)CC[C@@H](C(=O)N[C@@H](C)C(=O)N[C@@H](CCCNC(=N)N)C(=O)N[C@@H](CCCCN)C(=O)N[C@@H](CO)C(=O)N[C@H](C(N)=O)[C@@H](C)O)NC(=O)[C@H](CCC(N)=O)NC1=O (relative stereo) [Peptide 31] | 100 | 100 | 5.3 | Ki (LSD1 [1]): 2.3 µM; mode of inhibition (LSD1 [1]): competitive inhibitor |
| CSCC[C@@H]1NC(=O)[C@H](NC(=O)[C@H](CCCNC(=N)N)NC(=O)[C@H](C)N)CCC(=O)NCCCC[C@@H](C(=O)N[C@@H](C)C(=O)N[C@@H](CCCNC(=N)N)C(=O)N[C@@H](CCCCN)C(=O)N[C@@H](CO)C(=O)N[C@H](C(N)=O)[C@@H](C)O)NC(=O)[C@H](CCC(N)=O)NC1=O (relative stereo) [Peptide 32] | – | < 20 | – | Ki (LSD1 [1]; read-out: Ki): > 100 µM |
| CSCC[C@H](NC(=O)[C@@H](NC(=O)[C@H](CCCNC(=N)N)NC(=O)[C@H](C)N)[C@@H](C)O)C(=O)N[C@@H](CCC(N)=O)C(=O)N[C@H](C(=O)N[C@@H](C)C(=O)N[C@@H](CCCNC(=N)N)C(=O)N[C@@H](CCCCN)C(=O)N[C@@H](CO)C(=O)N[C@H](C(=O)NCC(=O)NCC(=O)N[C@@H](CCCCN)C(=O)N[C@@H](C)C(=O)O)[C@@H](C)O)[C@@H](C)O [Peptide 2] | – | – | – | Kd (LSD1 [2]): 5 µM |
| CSCC[C@H](NC(=O)[C@@H](NC(=O)[C@H](CCCNC(=N)N)NC(=O)[C@H](C)N)[C@@H](C)O)C(=O)N[C@@H](CCC(N)=O)C(=O)N[C@H](C(=O)N[C@@H](C)C(=O)N[C@@H](CCCNC(=N)N)C(=O)N[C@@H](CCCCN)C(=O)O)[C@@H](C)O [Peptide 5] | – | – | – | Kd (LSD1 [2]): > 200 µM |
| C=CC[C@H](NC(=O)[C@H](CCCNC(=N)N)NC(=O)[C@@H](N)CC=C)C(=O)N[C@@H](CCSC)C(=O)N[C@@H](CCC(N)=O)C(=O)N[C@H](C(=O)N[C@@H](C)C(=O)N[C@@H](CCCNC(=N)N)C(=O)N[C@@H](CCCCN)C(=O)N[C@@H](CO)C(=O)N[C@H](C(N)=O)[C@@H](C)O)[C@@H](C)O [Peptide 18] | 98 | 98 | – | IC50 (LSD1 [1]): 5 µM |
| CSCC[C@H](NC(=O)[C@@H]1C/C=C\C[C@H](N)C(=O)N[C@@H](CCCNC(=N)N)C(=O)N1)C(=O)N[C@@H](CCC(N)=O)C(=O)N[C@H](C(=O)N[C@@H](C)C(=O)N[C@@H](CCCNC(=N)N)C(=O)N[C@@H](CCCCN)C(=O)N[C@@H](CO)C(=O)N[C@H](C(N)=O)[C@@H](C)O)[C@@H](C)O [Peptide 19] | 100 | 100 | – | – |
| C=CC[C@H](NC(=O)[C@H](CCC(N)=O)NC(=O)[C@H](CCSC)NC(=O)[C@H](CC=C)NC(=O)[C@H](CCCNC(=N)N)NC(=O)[C@H](C)N)C(=O)N[C@@H](C)C(=O)N[C@@H](CCCNC(=N)N)C(=O)N[C@@H](CCCCN)C(=O)N[C@@H](CO)C(=O)N[C@H](C(N)=O)[C@@H](C)O [Peptide 20, ARG^alyMQG^alyARKST-NH2] | 95 | 95 | – | – |
| C=CCCC[C@H](NC(=O)[C@H](CCC(N)=O)NC(=O)[C@H](CCSC)NC(=O)[C@H](CCCC=C)NC(=O)[C@H](CCCNC(=N)N)NC(=O)[C@H](C)N)C(=O)N[C@@H](C)C(=O)N[C@@H](CCCNC(=N)N)C(=O)N[C@@H](CCCCN)C(=O)N[C@@H](CO)C(=O)N[C@H](C(N)=O)[C@@H](C)O [Peptide 22, ARG^penMQG^penARKST-NH2] | 100 | 100 | – | – |
| CSCC[C@@H]1NC(=O)[C@@H](NC(=O)[C@H](CCCNC(=N)N)NC(=O)[C@H](C)N)CCC/C=C\CCC[C@@H](C(=O)N[C@@H](C)C(=O)N[C@@H](CCCNC(=N)N)C(=O)N[C@@H](CCCCN)C(=O)N[C@@H](CO)C(=O)N[C@H](C(N)=O)[C@@H](C)O)NC(=O)[C@H](CCC(N)=O)NC1=O [Peptide 23, ARG^penMQG^penARKST-NH2] | 75 | 75 | – | – |
| CSCC[C@@H]1NC(=O)[C@@H](NC(=O)[C@H](CCCNC(=N)N)NC(=O)[C@H](C)N)CCC/C=C\CCC[C@H](C(=O)N[C@@H](C)C(=O)N[C@@H](CCCNC(=N)N)C(=O)N[C@@H](CCCCN)C(=O)N[C@@H](CO)C(=O)N[C@H](C(N)=O)[C@@H](C)O)NC(=O)[C@H](CCC(N)=O)NC1=O [Peptide 25, ARG^penMQ*G^penARKST-NH2] | 95 | 95 | – | – |
| CSCC[C@@H]1NC(=O)[C@@H](NC(=O)[C@H](CCCNC(=N)N)NC(=O)[C@H](C)N)CCCCNC(=O)CC[C@@H](C(=O)N[C@@H](C)C(=O)N[C@@H](CCCNC(=N)N)C(=O)N[C@@H](CCCCN)C(=O)N[C@@H](CO)C(=O)N[C@H](C(N)=O)[C@@H](C)O)NC(=O)[C@H](CCC(N)=O)NC1=O [Peptide 27] | 65 | 65 | 62 | Ki (LSD1 [1]; read-out: Ki): 31 µM |
| CSCC[C@@H]1NC(=O)[C@@H](NC(=O)[C@H](CCCNC(=N)N)NC(=O)[C@H](C)N)CCC(=O)NCCCC[C@@H](C(=O)N[C@@H](C)C(=O)N[C@@H](CCCNC(=N)N)C(=O)N[C@@H](CCCCN)C(=O)N[C@@H](CO)C(=O)N[C@H](C(N)=O)[C@@H](C)O)NC(=O)[C@H](CCC(N)=O)NC1=O [Peptide 28] | 98 | 98 | 12 | Ki (LSD1 [1]): 4 µM; mode of inhibition (LSD1 [1]): competitive inhibitor |
| CSCC[C@@H]1NC(=O)[C@@H](NC(=O)[C@H](CCCNC(=N)N)NC(=O)[C@@H]2CCCN2)CCCCNC(=O)CC[C@@H](C(=O)N[C@@H](C)C(=O)N[C@@H](CCCNC(=N)N)C(=O)N[C@@H](CCCCN)C(=O)N[C@@H](CO)C(=O)N[C@H](C(N)=O)[C@@H](C)O)NC(=O)[C@H](CCC(N)=O)NC1=O [Peptide 29] (H-PRKMQEARKST-NH2; lactam 3-6) | 90 | 90 | 14 | Ki (LSD1 [1]; read-out: Ki): 7 µM |
| CSCC[C@@H]1NC(=O)[C@@H](NC(=O)[C@H](CCCNC(=N)N)NC(=O)[C@@H]2CCCN2)CCC(=O)NCCCC[C@@H](C(=O)N[C@@H](C)C(=O)N[C@@H](CCCNC(=N)N)C(=O)N[C@@H](CCCCN)C(=O)N[C@@H](CO)C(=O)N[C@H](C(N)=O)[C@@H](C)O)NC(=O)[C@H](CCC(N)=O)NC1=O [Peptide 30] (H-PREMQKARKST-NH2; lactam 3-6) | 75 | 75 | 44 | Ki (LSD1 [1]; read-out: Ki): 22 µM |
| CSCC[C@@H]1NC(=O)[C@@H](NC(=O)[C@H](CCCNC(N)=O)NC(=O)[C@H](C)N)CCC(=O)NCCCC[C@@H](C(=O)N[C@@H](C)C(=O)N[C@@H](CCCNC(=N)N)C(=O)N[C@@H](CCCCN)C(=O)N[C@@H](CO)C(=O)N[C@H](C(N)=O)[C@@H](C)O)NC(=O)[C@H](CCC(N)=O)NC1=O [Peptide 33] (H-A[Cit]EMQKARKST-NH2; lactam 3-6) | 97 | 97 | 13 | – |
| CSCC[C@@H]1NC(=O)[C@@H](NC(=O)[C@H](CCCNC(=N)N)NC(=O)[C@H](C)N)CCC(=O)NCCCC[C@@H](C(=O)N[C@@H](C)C(=O)N[C@@H](CCCNC(N)=O)C(=O)N[C@@H](CCCCN)C(=O)N[C@@H](CO)C(=O)N[C@H](C(N)=O)[C@@H](C)O)NC(=O)[C@H](CCC(N)=O)NC1=O [Peptide 34] (H-AREMQKA[Cit]KST-NH2; lactam 3-6) | 97 | 97 | 14 | Ki (LSD1 [1]): 8 µM |
| CSCC[C@@H]1NC(=O)[C@@H](NC(=O)[C@H](CCCNC(=N)N)NC(=O)[C@H](C)N)CCCCn2cc(nn2)C[C@@H](C(=O)N[C@@H](C)C(=O)N[C@@H](CCCNC(=N)N)C(=O)N[C@@H](CCCCN)C(=O)N[C@@H](CO)C(=O)N[C@H](C(N)=O)[C@@H](C)O)NC(=O)[C@H](CCC(N)=O)NC1=O [Peptide 35, ARK^azdMQG^prgARKST-NH2] | – | < 30 | – | inhibition of LSD1 (in words) (LSD1 [1]): weak competitive inhibitors; Ki (LSD1 [1]; read-out: Ki): > 100 µM |
| CSCC[C@@H]1NC(=O)[C@@H](NC(=O)[C@H](CCCNC(=N)N)NC(=O)[C@H](C)N)Cc2cn(nn2)CCCC[C@@H](C(=O)N[C@@H](C)C(=O)N[C@@H](CCCNC(=N)N)C(=O)N[C@@H](CCCCN)C(=O)N[C@@H](CO)C(=O)N[C@H](C(N)=O)[C@@H](C)O)NC(=O)[C@H](CCC(N)=O)NC1=O [Peptide 36, ARG^prgMQK^azdARKST-NH2] | 70 | 70 | 60 | inhibition of LSD1 (in words) (LSD1 [1]): weak competitive inhibitors; Ki (LSD1 [1]; read-out: Ki): 30 µM |
| H3_1-21 K4(Me): N-terminal 21 amino acids of histone H3, mono-N-methylated at Lys4; LSD1 substrate [reference compound] | – | – | – | kcat (LSD1 [1]; substrate of LSD1, 50 mM NaCl): 0.6 s^–1; Km (LSD1 [1]; substrate of LSD1, 50 mM NaCl): 20 µM; Km (LSD1 [1]; substrate of LSD1, 150 mM NaCl): 80 µM; Km (LSD1 [1]; substrate of LSD1, without added NaCl): 10 µM |

Source: publication PMC7057333 (ACS Omega, 2020)
